# Laboratory results taken from patent US10526323B2, “Indazole and azaindazole substituted compounds as mGluR4 allosteric potentiators, compositions, and methods of treating neurological dysfunction” (Vanderbilt University, priority 2015, dated 2020).
# pEC50: −log10 of the molar value.
# Molecular target: mGluR4 (UniProt Q14833)
# Experiment: mGluR4 potentiation assay: increase in response to an EC20 concentration of agonist (species not given)
# Type: cell-based
# Conditions: EC50 for potentiation of mGluR4; table does not state human or rat
# How it was run: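 Human mGluR4 was expressed in CHO cells read with a Ca2+-sensitive dye; rat mGluR4 was co-expressed with GIRK in […] read by thallium flux. Potentiation is the rise over agonist-alone response, with EC50 and maximal potentiation from non-linear fits.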
row,SMILES,pEC50
1,"Clc1nn(CC2CCC2)c2ccc(Nc3n[nH]c4cccnc34)cc12 [Example 285, N-(3-chloro-1-(cyclobutylmethyl)-1H-indazol-5-yl)-1H-pyrazolo[4,3-b]pyridin-3-amine]",5.70
2,"CCC(C)n1nc(Cl)c2cc(Nc3n[nH]c4cccnc34)ccc21 (stereo not shown) [Example 286, N-(1-(sec-butyl)-3-chloro-1H-indazol-5-yl)-1H-pyrazolo[4,3-b]pyridin-3-amine]",< 5.00
3,"FC1(F)CC(Cn2nc(Cl)c3cc(Nc4n[nH]c5cccnc45)ccc32)C1 [Example 287, N-(3-chloro-1-((3,3-difluorocyclobutyl)methyl)-1H-indazol-5-yl)-1H-pyrazolo[4,3-b]pyridin-3-amine]",5.52
4,"Cc1nn(CC2CC(F)(F)C2)c2ccc(Nc3n[nH]c4cccnc34)cc12 [Example 288, N-(1-((3,3-difluorocyclobutyl)methyl)-3-methyl-1H-indazol-5-yl)-1H-pyrazolo[4,3-b]pyridin-3-amine]",6.17
